We go through 14 molecules from patent US7160923B1, “Polyamine analogues as therapeutic and diagnostic agents” (MediQuest Therapeutics, Inc., priority 1997, dated 2007).

In data set [1] the test system is polyamine transporter (PATr). As to the kind of experiment: Polyamine transport (PAT) inhibition assay in MDA-MB-231 cells. The data set is classed as cell-based, human. The protocol:
(§1) In a conventional radiometric assay, the cells are incubated under growth conditions with [5,8-^14C]spermine in serum-free medium for varying intervals. Cells are plated at a known density in 24 well plates in standard tissue culture medium and allowed to adhere and grow for 15–96 hours. Due to the low signal of the radiolabel in this assay, 96 or […] well microplates cannot be used in this assay, creating a major bottleneck for throughput. Cell numbers are determined, and the plate is placed in a temperature controlled system at 37° C. Aminoguanidine is added to the medium to a final concentration of 1 mM. […] The assay is initiated by the mixing of the inhibitor and radioligand. The cells are incubated for an interval of about 1–60 minutes depending on cell type. The assay is terminated by removing the medium and cooling the plates to 4° C. The cells are then washed with cold medium three times, dissolved in 0.1% sodium dodecylsulfate, and the radioactivity in solution is determined by scintillation counting.
Therefore, the growth assay and a kinetic transport assay have been used to validate transport inhibition. […]

In data set [2] the test system is polyamine transporter (PATr). The experiment in a line: Radiometric polyamine transport (PAT) assay in A172 cells. Type of data set: cell-based. How it is done: as §1, with “In a conventional radiometric assay, the cells are incubated under growth conditions with [5,8-^14C]spermine in serum-free medium for varying intervals.” left out
The test system of another data set is cultured cells. As to the kind of experiment: Fluorescent microscopic analysis of monodansylspermine uptake. The data set is classed as cell-based. How it is done: Cells were plated in a sterile chambered slide and grown for 15–48 hours to assure adherence of cells to the slide. The medium was removed and replaced with fresh medium containing 1 μM MDS for a 10 minute incubation period at 37° C. The medium was then removed and the cells washed 3 times with phosphate buffered saline. Glycerol (50% v/v) in a volume of […] was added to the chamber, and the slide was removed and covered with a cover slip.
Using a fluorescence microscope with filters set for excitation at 340 nm and emission at 530 nm, the slide was observed under normal light and with fluorescence. Uptake of the dansylated spermine was observed microscopically and recorded on photograph.

The next data set has as its system cancer cells. As to conditions: cited from earlier work.
The test system of data set [3] is MDA-MB-231 human breast carcinoma cells. As to the kind of experiment: Growth assay of MDA-MB-231 cells with and without ODC inhibitor (DFMO), 1 μM spermidine. Type of data set: cell-based. As to conditions: for R: ratio of the IC50 in the absence of DFMO over the IC50 in the presence of DFMO, MDA growth assay. The source says: The ratio, R is the IC50 for […] relative to the IC50 for the polyamine analogue combined with an ODC inhibitor. This value of R, indicates the relative level of “synergism” between the polyamine analogue and ODC inhibitor.

Data set [4] relates to polyamine transporter (PATr). The experiment in a line: Polyamine transport (PAT) inhibition assay in MDA-MB-231 cells. Type of data set: cell-based, human. The source holds these as a separate data set.
Data set [5] has as its target spermidine/spermine acetyltransferase (SSAT) (Homo sapiens, UniProt P21673). The experiment in a line: Spermidine/spermine acetyltransferase (SSAT) enzyme assay. As to conditions: varying concentrations; 1 mM spermidine, 1 mM 14C-Acetyl CoA, pH 7.8. The data set is classed as biochemical. How it is done: A study was conducted to determine whether the compositions of the present invention, designed as PAT inhibitors, had other activities on the PA system. Specifically, the ability of DACS to inhibit an enzyme involved in PA recycling was evaluated. The method used was as described in Casero, R. A. et al., Biochem. J270:615–620 (1990) hereby incorporated by reference in its entirety. This assay measures the incorporation of ^14C-labeled acetyl CoA into spermidine to form acetylspermidine. Varying concentrations of DACS were added to a reaction mixture containing HEPES buffer, pH 7.8, 1 mM spermidine, and 1 mM ^14C-Acetyl CoA. The product is isolated by binding to phosphocellulose filter paper and the extent of reaction is determined by scintillation counting.

Data set [6] deals with T-cell acute lymphoblastic leukemias (ALL), glioblastomas, prostate, and colon cell lines. The experiment in a line: In vitro test in combination with ODC inhibitors against several human cancer cell lines. Type of data set: cell-based. How it is done:
DACS was tested in vitro in combination with ODC inhibitors against several human cancer cell lines. These include T-cell acute lymphoblastic leukemias (ALL), glioblastomas, prostate, and colon cell lines.

The test system of a further data set is neoplastic vessels. The conditions noted are these: one month of treatment, humans with cervical interepithelial neoplasia; cited from earlier work.
The subject of data set [7] is murine L1210 leukemia cells. The conditions noted are these: cited from earlier work.
The mark [8] stands for this setting: parallel library products, purity estimated greater than 80%, read-out: Ki μM, Inhibition of the Polyamine Transporter in MDA-MB-231 Cell Line.
Where [9] appears, read: MDA-MB-231 cell PATr, read-out: Ki for the PATr.

spermidine/spermine acetyltransferase (SSAT), sequence (P21673 whole entry, species assumed): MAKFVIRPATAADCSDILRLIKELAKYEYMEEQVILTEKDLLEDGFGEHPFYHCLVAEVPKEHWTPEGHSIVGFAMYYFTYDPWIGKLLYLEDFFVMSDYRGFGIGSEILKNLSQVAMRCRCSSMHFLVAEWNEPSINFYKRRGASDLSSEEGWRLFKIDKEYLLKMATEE

In the case of `NCCCNCCCCNCCCNS(=O)(=O)c1cccc2ccccc12`, the Ki (as a rule, the dissociation constant of the complex between target and ligand, obtained from inhibition or displacement) in data set [1] (setting [8]) was 0.19 µM.
On to `NCCCCNS(=O)(=O)c1ccc2ccccc2c1`, for which, in data set [1] (setting [8]), the Ki is 5 µM.
As to `CN(C)CCCN1c2ccccc2CCc2ccccc21` [Compound 165, imipramine, reference compound], the “inhibition of the PAT assay” value in data set [2] (A172 cell line) and in [1] (MDA cell line) was “inhibited the PAT assay” each time. In addition, the Ki in [2] (A172 cells, read-out: Ki, non-competitive inhibitor of PAT) was found to be 41 nM; in data set [1] (MDA cells, read-out: Ki, non-competitive inhibitor of PAT) it was 0.5 µM. Moreover, the “inhibition of polyamine transport” value in data set [1] (cell line not stated at the place (Example XXII: A172 and MDA)) is recorded as “inhibited polyamine transport”.
Turning to `CC1(C)C2CCC1(CS(=O)(=O)NCCCNCCCCNCCCN)C(=O)C2` (stereo not shown), the Ki in data set [1] (setting [8]) is greater than 10 µM.
For `CN(C)c1cccc2c(S(=O)(=O)NCCCNCCCCNCCCN)cccc12` [Compound 3, N^1-dansylspermine], the “displacement of 3H-spermidine in the transport assay” value in [2] (A172 cells) is reported as “competitively displace”. In the data set with cultured cells, the intracellular localization entry was “localize specifically to the nucleoli and the nuclear membrane”. The “uptake of the fluorescent probe into cells” value in the data set with cultured cells (1 μM, 10 minute incubation at 37° C.) was “took up the labeled material”. For the same molecule, the Ki in data set [1] (setting [9]) came to 0.08 µM.
In the case of `CC1(C)C2CCC1(CS(=O)(=O)NCCCCN)C(=O)C2` (stereo not shown), the Ki in [1] (setting [8]) was greater than 30 µM.
Still for that read-out and setting: then `NCCCCNS(=O)(=O)c1cccc2ccccc12`, with greater than 30 µM.
As for `NCCCCN(CCCN)CCCNC(=O)CCCc1ccc(N(CCCl)CCCl)cc1` [chlorambucil-spermidine conjugate], in the data set with cancer cells, the “fold increase in cytotoxicity compared to chlorambucil alone” value was no more than 225 fold.
`NCCCNCCCCNCCCNC(=O)CCCCCNS(=O)(=O)c1ccc2oc3ccccc3c2c1` [Compound 6]: the R in data set [3] stood at 220.
Regarding `CN(C)c1cccc2c(S(=O)(=O)NCCCCCC(=O)NCCCNCCCCNCCCN)cccc12` [Compound 4, N^1-[(N^6-dansyl)-6-aminocaproyl]spermine], the Ki in data set [4] (putrescine uptake, read-out: Ki, putrescine uptake) was determined as 5.4 nM; in data set [4] (spermidine uptake, read-out: Ki, spermidine uptake), 8 nM. In addition, the cell growth reduced in data set [3] (DACS plus ODC inhibitor in the presence of polyamines, by day 3) stood at 69%. Moreover, the half-maximal inhibitory concentration (IC50) (in general, the concentration that gives 50% inhibition) in data set [3] (Homo sapiens, MDA-MB-231, with ODC inhibitor, 1.0 μM supplemented polyamines, read-out: IC50 for growth in combination with an ODC inhibitor) was determined as 600 nM. For the same molecule, the “concentration at which the compound alone becomes growth inhibitory” value in data set [3] (alone, without ODC inhibitor) was found to be 300 µM. Besides, the “prevention of rescue from ODC inhibition by natural polyamines” value in data set [3] (putrescine, spermidine, N1-acetylspermine and N1-acetylspermidine) is recorded as “prevents”. Further, the R in [3] came out at 400. The “inhibition of SSAT enzymatic activity” value in data set [5] is recorded as “inhibited spermidine/spermine acetyltransferase (SSAT) in a dose-related manner”. Further, the “effectiveness against tumor cell lines in vitro” value in data set [6] was “effective against all these tumor cell lines in vitro”.
For `NCCC[C@](N)(C(=O)O)C(F)F` [DFMO, α-difluoromethylornithine], the “reduction in neoplastic vessel count” value with neoplastic vessels is listed as 50%. Also, the survival in data set [7] (DFMO mice transplanted with PAT-deficient L1210 cells) is given as greater than 60 days. Further, the time to death in data set [7] (mice with wild-type L1210 cells (intact PAT), treated with DFMO) is on record as 12 days.
`NCCCNCCCCNCCCNS(=O)(=O)c1ccc2ccccc2c1`: the Ki in data set [1] (setting [8]) was 0.15 µM.
In the case of `NCCCNCCCCNCCCNS(=O)(=O)c1ccc2ccc3cccc4ccc1c2c34` [Compound 15, N^1-(1-pyrenylsulfonyl)spermine], the Ki in [1] (setting [9]) is 0.091 µM.
With `NCCCNCCCCNCCCNC(=O)CCCCCNS(=O)(=O)c1ccc(CNC(=O)c2ccc(Cl)cc2)s1` [Compound 5, N^1-[(N^6–5-(4-chlorobenzamidomethyl)-thiophene-2-sulfonyl)-6-aminocaproyl]spermine], in [3], the R is given as 210.
